{"source": "patent US8889874B2", "about": "“Imidazolone-chalcone derivatives as potential anticancer agent and process for the preparation thereof” (Council of Scientific and Industrial Research, priority 2010, dated 2014)", "assay_in_all_cases": "NCI anticancer screen, SRB assay, 48 h", "assay_type_in_all_cases": "cell-based, human", "key": {"[1]": {"system": "UACC-62 (melanoma)", "conditions": "Homo sapiens", "description": "(§1) Some of biological activity studies were carried out at the National Cancer Institute (NCI), Maryland, USA.\n(§2) The compounds were evaluated for anticancer activity against fifty three human cancer cells derived from nine cancer types (leukemia cell line, non-small-cell lung cell line, colon cell line, CNS cell line, melanoma cell line, ovarian cell line, prostate cell line, and breast cancer cell line) as shown in Table 1. For each compound, dose response curves for each cell line were measured at a minimum of five concentrations at 10 fold dilutions. A protocol of 48 h continuous drug exposure was used and a sulforhodamine B (SRB) protein assay was used to estimate cell viability or growth."}, "[2]": {"system": "ACHN (renal)", "conditions": "Homo sapiens", "description": "as §1, §2"}, "[3]": {"system": "M14 (melanoma)", "conditions": "Homo sapiens", "description": "as §1, §2"}, "[4]": {"system": "MALME-3M (melanoma)", "conditions": "Homo sapiens", "description": "as §1, §2"}, "[5]": {"system": "COLO 205 (colon)", "conditions": "Homo sapiens, COLO 205", "description": "as §1, §2"}, "[6]": {"system": "SN12C (renal)", "conditions": "Homo sapiens, SN12C", "description": "as §1, §2"}, "[7]": {"system": "MCF7 (breast)", "conditions": "Homo sapiens", "description": "as §1, §2"}, "[8]": {"system": "SF-539 (CNS)", "conditions": "Homo sapiens", "description": "as §1, §2"}, "[9]": {"system": "OVCAR-5 (ovarian)", "conditions": "Homo sapiens", "description": "as §1, §2"}, "[10]": {"system": "U251 (CNS)", "conditions": "Homo sapiens", "description": "as §1, §2"}, "[11]": {"system": "CAKI-1 (renal)", "conditions": "Homo sapiens", "description": "as §1, §2"}, "[12]": {"system": "UACC-257 (melanoma)", "conditions": "Homo sapiens", "description": "as §1, §2"}, "[13]": {"system": "OVCAR-8 (ovarian)", "conditions": "Homo sapiens", "description": "as §1, §2"}, "[14]": {"system": "EKVX (non-small cell lung)", "conditions": "Homo sapiens", "description": "as §1, §2"}, "[15]": {"system": "SW-620 (colon)", "conditions": "Homo sapiens", "description": "as §1, §2"}, "[16]": {"system": "NCI-H226 (non-small cell lung)", "conditions": "Homo sapiens", "description": "as §1, §2"}, "[17]": {"system": "SNB-19 (CNS)", "conditions": "Homo sapiens", "description": "as §1, §2"}, "[18]": {"system": "SK-OV-3 (ovarian)", "conditions": "Homo sapiens", "description": "as §1, §2"}, "[19]": {"system": "786-0 (renal)", "conditions": "Homo sapiens", "description": "as §1, §2"}, "[20]": {"system": "SK-MEL-5 (melanoma)", "conditions": "Homo sapiens", "description": "as §1, §2"}, "[21]": {"system": "SF-295 (CNS)", "conditions": "Homo sapiens", "description": "as §1, §2"}, "[22]": {"system": "A549/ATCC (non-small cell lung)", "conditions": "Homo sapiens", "description": "as §1, §2"}, "[23]": {"system": "BT-549 (breast)", "conditions": "Homo sapiens", "description": "as §1, §2"}, "[24]": {"system": "KM12 (colon)", "conditions": "Homo sapiens", "description": "as §1, §2"}, "[25]": {"system": "SF-268 (CNS)", "conditions": "Homo sapiens", "description": "as §1, §2"}, "[26]": {"system": "LOX IMVI (melanoma)", "conditions": "Homo sapiens", "description": "as §1, §2"}, "[27]": {"system": "RXF 393 (renal)", "conditions": "Homo sapiens", "description": "as §1, §2"}, "[28]": {"system": "HT29 (colon)", "conditions": "Homo sapiens", "description": "as §1, §2"}, "[29]": {"system": "NCI/ADR-RES (ovarian)", "conditions": "Homo sapiens, NCI/ADR-RES", "description": "as §1, §2"}, "[30]": {"system": "PC-3 (prostate)", "conditions": "Homo sapiens", "description": "as §1, §2"}, "[31]": {"system": "SK-MEL-2 (melanoma)", "conditions": "Homo sapiens", "description": "as §1, §2"}, "[32]": {"system": "RPMI-8226 (leukemia cell line)", "conditions": "Homo sapiens", "description": "as §1, §2"}, "[33]": {"system": "OVCAR-3 (ovarian)", "conditions": "Homo sapiens", "description": "as §1, §2"}, "[34]": {"system": "NCI-H322M (non-small cell lung)", "conditions": "Homo sapiens", "description": "as §1, §2"}, "[35]": {"conditions": "48 h exposure, SRB, read-out: GI50"}, "[36]": {"conditions": "read-out: pGI50 (-log of molar concentration causing 50% inhibition of net cell growth) (converted)"}}, "note": "Read-outs that look alike come from different tables or passages of the source.", "data": [{"smiles": "O=C(/C=C/c1cccc(O)c1)c1cccc(-n2cc(-c3ccccc3)[nH]c2=O)c1", "note": "[4a, 1-3-[(E)-3-(3-hydroxyphenyl)-2-propenoyl]phenyl-4-phenyl-2,3-dihydro-1H-2-imidazolone]", "values": [{"measurement": "GI50", "setting": "[1]; [35]", "result": 3.65, "unit": "µM"}, {"measurement": "GI50", "setting": "[1]; [36]", "result": 3.63, "unit": "µM"}, {"measurement": "GI50", "setting": "[2]; [35]", "result": 2.76, "unit": "µM"}, {"measurement": "GI50", "setting": "[2]; [36]", "result": 2.75, "unit": "µM"}, {"measurement": "GI50", "setting": "[3]; [35]", "result": 4.53, "unit": "µM"}, {"measurement": "GI50", "setting": "[3]; [36]", "result": 4.57, "unit": "µM"}, {"measurement": "GI50", "setting": "[4]; Malme-3M, read-out: pGI50 (-log of molar concentration causing 50% inhibition of net cell growth) (converted)", "result": 6.17, "unit": "µM"}, {"measurement": "GI50", "setting": "[4]; MALME-3M, 48 h exposure, SRB, read-out: GI50", "result": 6.21, "unit": "µM"}, {"measurement": "GI50", "setting": "[5]; COLO205, read-out: pGI50 (-log of molar concentration causing 50% inhibition of net cell growth) (converted)", "result": 2, "unit": "µM"}, {"measurement": "GI50", "setting": "[5]; [35]", "result": 2.01, "unit": "µM"}, {"measurement": "GI50", "setting": "[6]; SN 12C, read-out: pGI50 (-log of molar concentration causing 50% inhibition of net cell growth) (converted)", "result": 3.16, "unit": "µM"}, {"measurement": "GI50", "setting": "[6]; [35]", "result": 3.14, "unit": "µM"}, {"measurement": "GI50", "setting": "[7]; [35]", "result": 2.47, "unit": "µM"}, {"measurement": "GI50", "setting": "[7]; [36]", "result": 2.45, "unit": "µM"}, {"measurement": "GI50", "setting": "[8]; [35]", "result": 1.98, "unit": "µM"}, {"measurement": "GI50", "setting": "[8]; [36]", "result": 2, "unit": "µM"}, {"measurement": "GI50", "setting": "[9]; [35]", "result": 5.44, "unit": "µM"}, {"measurement": "GI50", "setting": "[9]; [36]", "result": 5.5, "unit": "µM"}, {"measurement": "GI50", "setting": "[10]; U-251, 48 h exposure, SRB, read-out: GI50", "result": 1.61, "unit": "µM"}, {"measurement": "GI50", "setting": "[10]; U-251, read-out: pGI50 (-log of molar concentration causing 50% inhibition of net cell growth) (converted)", "result": 1.62, "unit": "µM"}, {"measurement": "GI50", "setting": "[11]; [35]", "result": 13.3, "unit": "µM"}, {"measurement": "GI50", "setting": "[11]; [36]", "result": 13.2, "unit": "µM"}, {"measurement": "GI50", "setting": "[12]; [35]", "result": 7.68, "unit": "µM"}, {"measurement": "GI50", "setting": "[12]; [36]", "result": 7.76, "unit": "µM"}, {"measurement": "GI50", "setting": "[13]; [35]", "result": 2.8, "unit": "µM"}, {"measurement": "GI50", "setting": "[13]; [36]", "result": 2.82, "unit": "µM"}, {"measurement": "GI50", "setting": "[14]; [35]", "result": 15.6, "unit": "µM"}, {"measurement": "GI50", "setting": "[14]; [36]", "result": 15.5, "unit": "µM"}, {"measurement": "GI50", "setting": "[15]; [35]", "result": 2.41, "unit": "µM"}, {"measurement": "GI50", "setting": "[15]; [36]", "result": 2.4, "unit": "µM"}, {"measurement": "GI50", "setting": "[16]; [35]", "result": 24.8, "unit": "µM"}, {"measurement": "GI50", "setting": "[16]; [36]", "result": 24.5, "unit": "µM"}, {"measurement": "GI50", "setting": "[17]; [35]", "result": 10.9, "unit": "µM"}, {"measurement": "GI50", "setting": "[17]; [36]", "result": 11, "unit": "µM"}, {"measurement": "GI50", "setting": "[18]; [35]", "result": 11.1, "unit": "µM"}, {"measurement": "GI50", "setting": "[18]; [36]", "result": 11.2, "unit": "µM"}, {"measurement": "GI50", "setting": "[19]; [35]", "result": 2.98, "unit": "µM"}, {"measurement": "GI50", "setting": "[19]; [36]", "result": 2.95, "unit": "µM"}, {"measurement": "GI50", "setting": "[20]; [35]", "result": 3.18, "unit": "µM"}, {"measurement": "GI50", "setting": "[20]; [36]", "result": 3.16, "unit": "µM"}, {"measurement": "GI50", "setting": "[21]; [35]", "result": 18.2, "unit": "µM"}, {"measurement": "GI50", "setting": "[21]; [36]", "result": 18.2, "unit": "µM"}, {"measurement": "GI50", "setting": "[22]; [35]", "result": 3.89, "unit": "µM"}, {"measurement": "GI50", "setting": "[22]; [36]", "result": 3.89, "unit": "µM"}, {"measurement": "GI50", "setting": "[23]; [35]", "result": 9.32, "unit": "µM"}, {"measurement": "GI50", "setting": "[23]; [36]", "result": 9.33, "unit": "µM"}, {"measurement": "GI50", "setting": "[24]; [35]", "result": 1.83, "unit": "µM"}, {"measurement": "GI50", "setting": "[24]; [36]", "result": 1.82, "unit": "µM"}, {"measurement": "GI50", "setting": "[25]; [35]", "result": 4.53, "unit": "µM"}, {"measurement": "GI50", "setting": "[25]; [36]", "result": 4.57, "unit": "µM"}, {"measurement": "GI50", "setting": "[26]; [35]", "result": 1.85, "unit": "µM"}, {"measurement": "GI50", "setting": "[26]; [36]", "result": 1.86, "unit": "µM"}, {"measurement": "GI50", "setting": "[27]; RXF 393, 48 h exposure, SRB, read-out: GI50", "result": 1.89, "unit": "µM"}, {"measurement": "GI50", "setting": "[27]; RXF-393, read-out: pGI50 (-log of molar concentration causing 50% inhibition of net cell growth) (converted)", "result": 1.91, "unit": "µM"}, {"measurement": "GI50", "setting": "[28]; HT-29, 48 h exposure, SRB, read-out: GI50", "result": 3.33, "unit": "µM"}, {"measurement": "GI50", "setting": "[28]; HT-29, read-out: pGI50 (-log of molar concentration causing 50% inhibition of net cell growth) (converted)", "result": 3.31, "unit": "µM"}, {"measurement": "GI50", "setting": "[29]; NCl/ADR-RES, 48 h exposure, SRB, read-out: GI50", "result": 3.73, "unit": "µM"}, {"measurement": "GI50", "setting": "[29]; [36]", "result": 3.72, "unit": "µM"}, {"measurement": "GI50", "setting": "[30]; PC-3, read-out: pGI50 (-log of molar concentration causing 50% inhibition of net cell growth) (converted)", "result": 2.82, "unit": "µM"}, {"measurement": "GI50", "setting": "[30]; one prostate cancer cell line (PC-3), exposure at least 48 hrs, read-out: GI50", "result": 2.82, "unit": "µM"}, {"measurement": "GI50", "setting": "[31]; [35]", "result": 8.26, "unit": "µM"}, {"measurement": "GI50", "setting": "[31]; [36]", "result": 8.32, "unit": "µM"}, {"measurement": "GI50", "setting": "[32]; [35]", "result": 2.15, "unit": "µM"}, {"measurement": "GI50", "setting": "[32]; [36]", "result": 2.14, "unit": "µM"}, {"measurement": "GI50", "setting": "[33]; [35]", "result": 3.08, "unit": "µM"}, {"measurement": "GI50", "setting": "[33]; [36]", "result": 3.09, "unit": "µM"}, {"measurement": "GI50", "setting": "[34]; [35]", "result": 10.6, "unit": "µM"}, {"measurement": "GI50", "setting": "[34]; [36]", "result": 10.7, "unit": "µM"}]}]}
